Experiments:
B16-OVA cells = assay: Lactate dehydrogenase (LDH) release assay; type: cell-based, mouse; settings: 300 μM and 500 μM
Experimental: (§1) A431 (human epidermoid carcinoma), MM649 (human melanoma), B16-OVA (B16-F10 mouse melanoma cell line stably transfected with chicken ovalbumin), MM415 (human melanoma) and FaDu (human hypopharyngeal carcinoma) cells were cultured in RPMI-1640, 10% FCS (complete medium) at 37° C., 5% CO2 in a humidified incubator. All cell lines used in this study were confirmed as mycoplasma negative using MycoAlert (Lonza). STR profiling was also performed to confirm the identity of the human cell lines used.
Measuring the release of LDH is a well-recognised assay to assess plasma membrane permeabilisation and detect cell death by necrosis (Chan et al. 2013). Three cell lines (A431, MM649 and B16-OVA) were used in these assays. Cells were plated at a density of 10,000 cells per well into clear 96-well plates (Corning, #3595; 100 μl of complete media) and the resultant plates incubated overnight as previously detailed. The following day, media was aspirated from each well and 50 μl of fresh medium was inserted. Stock solutions of Compound 1 were diluted to 2× final assay concentrations (1 mM and 600 μM) and 50 μl of these dilutions added to the required wells. […] OD490 nm and OD690 nm readings were recorded for each sample using a Hybrid Synergy H4 plate reader. Absorbance readings from drug treated samples were normalized to detergent treated controls to determine the % LDH release per well.

MM415 cells = assay: IncuCyte cytotoxicity assay (propidium iodide); type: cell-based, human; settings: 500 μM
Experimental: as §1
(§2) Four cancer cell lines (A431, MM649 (human melanoma), FaDu (HNSCC) and MM415 (human melanoma) were assessed for their response to epoxytigliane treatment. Cells were plated at a density of 10,000 cells per well (100 μl of complete media) into clear bottom black 96-well plates (Corning, #3603). Following 24 h incubation, the media within each well was aspirated and replaced with 50 μl of fresh media containing 1 μg/ml propidium iodide (PI). Stock solutions (20 mg/ml in ethanol) of four epoxytiglianes (Compounds 1, 2, 3 and 4) were diluted to 2× final assay concentration (1 mM) in identical media and inserted into a U-bottom 96 well plate in preparation for transfer. 50 μl of dilution was added to the required wells and the resultant plates inserted into an Essen Biosciences IncuCyte in preparation for imaging. Images were acquired at various time points (30 min, 1 h and at hourly intervals) for a total of 24 h.

FaDu cells = assay: IncuCyte cytotoxicity assay (propidium iodide); type: cell-based, human; settings: 500 μM
Experimental: as §1, §2

MM649 cells [1] = assay: IncuCyte cytotoxicity assay (propidium iodide); type: cell-based, human; settings: 500 μM
Experimental: as §1, §2

A431 cells = assay: IncuCyte cytotoxicity assay (propidium iodide); type: cell-based, human; settings: 500 μM
Experimental: as §1, §2

MM649 cells [2] = assay: ATP release assay; type: cell-based, human; settings: both concentrations (500 and 300 μM), within 60 minutes
Experimental: as §1, with “melanoma) and” for “melanoma),”, “ovalbumin)” for “ovalbumin), MM415 (human melanoma) and FaDu (human hypopharyngeal carcinoma) cells”, “incubator. BMDCs were cultured in R10 media (RPMI, 10% FCS, 2 mM glutamine, 50 μM beta-mercaptoethanol, Pen/Strep).” for “incubator.”
Cell lines were plated at a density of 10,000 cells per well into clear 96-well plates (Corning, #3595; 100 μl of complete media) and the resultant plates incubated overnight as previously detailed. The following day, media was aspirated from each well and 50 μl of fresh medium was inserted. Stock solutions of Compounds 1, 2, 3 and 4 were diluted to 2× final assay concentration (1 mM and 600 μM) and 50 μl of these dilutions added to the required wells. Ethanol only control solutions were also compiled and administered. At the indicated timepoints, 80 μl of media was removed, centrifuged at 1,200 rpm for 4 mins to pellet cell debris and 50 μl assayed for ATP using a bioluminescence based ATP assay kit (FLAA, Sigma-Aldrich). Relative luminescence units were recorded for each sample using a Hybrid Synergy H4 plate reader (BioTek).

[3] = system: CD11c+ BMDCs with B16-OVA cells; assay: BMDC uptake of epoxytigliane treated B16-OVA cells; type: cell-based, C57Bl/6 mice
Experimental: The tibias and […] from four 7-8 week old C57Bl/6 mice were first surgically removed under sterile conditions. The marrow was flushed from the bone cavity with 10 ml of ice cold R10 media (using a 27G needle/syringe into a 50 ml polypropylene tube). Cells were pelleted at 1,500 rpm for 5 mins and washed ×2 with ice cold R10 media. After resuspension of the pellet into 10 ml of ice cold R10 medium, cells were counted using an improved haemocytometer and plated at a density of 2×10^6 cells per plate (petri dish) in 10 ml of R10 supplemented with 20 ng/ml murine GM-CSF. All plates were incubated at 37° C., 5% CO2 and at day 3 an additional 10 ml R10 with 20 ng/ml GM-CSF was added. Cells were again fed at day 6 and used for downstream assays on day 7.
Prior to co-incubation with BMDCs, B16-OVA cells were trypsinised, centrifuged at 1,200 rpm for 4 mins to pellet cells and washed ×2 with complete medium. Cells were then stained with 2 μM Cell Tracker Green in complete medium for 45 mins, after which they were pelleted and washed ×2 as above. Labelled B16-OVA cells were subsequently treated with Compounds 1, 2, 3 and 4 at two concentrations (500 or 300 μM) in media at a density of 1×10^6 cells/ml for 30 and 60 mins, after which cells were pelleted via centrifugation, supernatant removed via aspiration and the cell pellet washed ×1 with complete media. After the wash, the treated cells were resuspended in R10 media, inserted into the wells of a 6-well plate (Corning, #3471. Ultra low attachment surface) and BMDCs added. Co-cultures were incubated for 4 h after which cell suspensions were transferred to a microfuge tube and centrifuged at 1,500 rpm for 5 mins. Pellets were resuspended in 100 μl FACs buffer containing anti-CD11c-APC and incubated for 10 mins at 4° C. Cells were again pelleted, washed ×1 with FACs buffer and then fixed using PBS, 1% formaldehyde for 10 mins. After centrifugation and removal of the supernatant, cells were resuspended in 500 μl FACs buffer in preparation for flow cytometry.
Samples were first gated by FSC-H v FSC-A, then SSC-H v SS-A to identify single cells. The proportion of CD11c^+ cells (Ex: 640 nm, Em: 670/14) with CMFDAmid (Ex: 488 nm, Em: 530/30) were then determined for treated and untreated cells as a percentage of all CD11c^+ cells.

[4] = after 120 minutes, majority of cells
[5] = differing extents and kinetics of onset

Question: Which results are given for `C/C=C(\C)C(=O)O[C@@H]1[C@@H](C)[C@@]2(O)[C@H]([C@@H]3C(C)(C)[C@]13OC(=O)[C@@H](C)CC)[C@@H]1O[C@]1(CO)[C@@H](O)[C@]1(O)C(=O)C(C)=C[C@H]12` [Compound 1, 12-tigloyl-13-(2-methylbutanoyl)-6,7-epoxy-4,5,9,12,13,20-hexahydroxy-1-tiglien-3-one]?
Answer: LDH release compared to the controls (B16-OVA cells): significant release of LDH; propidium iodide staining (loss of plasma membrane integrity) (MM415 cells; [4]): strong red staining; cell morphology (cytoplasmic swelling, blistering) (MM415 cells; [5]): significant cytoplasmic swelling and ‘blistering’; propidium iodide staining (loss of plasma membrane integrity) (FaDu cells; [4]): strong red staining; cell morphology (cytoplasmic swelling, blistering) (FaDu cells; [5]): significant cytoplasmic swelling and ‘blistering’; propidium iodide staining (loss of plasma membrane integrity) (MM649 cells [1]; [4]): strong red staining; cell morphology (cytoplasmic swelling, blistering) (MM649 cells [1]; [5]): significant cytoplasmic swelling and ‘blistering’; propidium iodide staining (loss of plasma membrane integrity) (A431 cells; [4]): strong red staining; cell morphology (cytoplasmic swelling, blistering) (A431 cells; [5]): significant cytoplasmic swelling and ‘blistering’; ATP release (MM649 cells [2]): significant release of ATP; dependence of antigen uptake on concentration and treatment time ([3]; 500 μM compared to the use of 300 μM): antigen uptake occurs to a greater extent after a shorter treatment time; uptake of dying cancer cell fragments by CD11c+ dendritic cells/macrophages (BMDCs) ([3]; B16-OVA treated at 500 or 300 μM for 30 and 60 mins, 4 h co-culture): promotes the uptake
